Experimental data published in PubChem BioAssay AID180 (DTP/NCI, 2004).
“And” between values parts separate entries of the source, which are not always exact repeats. Identical values can stand only once.

Test system: BDF1 mice, Adenocarcinoma 755 s.c., tumor weight T/C
Assay: NCI In Vivo Anticancer Drug Screen. Data for tumor model Adenocarcinoma 755 (subcutaneous) in B6D2F1 (BDF1) mice
Settings: endpoint: mean tumor weight, higher = larger tumour
In short: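 Tumor-bearing mice receive test compound while controls get vehicle alone. Antitumor effect is scored from survival or tumor dimensions as a T/C quotient.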

[1] = dose: 25.0 mg/kg/injection, schedule: Q01DX011 (ip), vehicle: methylcellulose (MC)
[2] = dose: 37.0 mg/kg/injection, schedule: Q01DX011 (ip), vehicle: carboxymethylcellulose (CMC)

Question: What does the source list for `CC(=O)OCC(=O)[C@@]1(O)CC[C@H]2[C@@H]3CCC4=CC(=O)[C@H](C)C[C@]4(C)[C@@]3(F)[C@@H](O)C[C@@]21C`?
Answer: T/C (dose: 3.75 mg/kg/injection, schedule: Q01DX011 (sc), vehicle: steriod suspending solution): 65 % of control; T/C (dose: 7.5 mg/kg/injection, schedule: Q01DX011 (sc), vehicle: steriod suspending solution): 29 % of control; T/C (dose: 15.0 mg/kg/injection, schedule: Q01DX011 (sc), vehicle: steriod suspending solution): 20 % of control; T/C (dose: 30.0 mg/kg/injection, schedule: Q01DX011 (sc), vehicle: steriod suspending solution): 9 % of control

Question: What does the source list for `CC(C)CC(Nc1ncnc2nc[nH]c12)C(=O)O` (stereo not drawn)?
Answer: T/C (dose: 12.0 mg/kg/injection, schedule: Q01DX011 (ip), vehicle: methylcellulose (MC)): 110 % of control; T/C [1]: 96 % of control; T/C (dose: 50.0 mg/kg/injection, schedule: Q01DX011 (ip), vehicle: methylcellulose (MC)): 101 % of control; T/C (dose: 100.0 mg/kg/injection, schedule: Q01DX011 (ip), vehicle: methylcellulose (MC)): 60 % of control

Question: Which results are given for `CS(=O)(=O)OCCCCCOS(C)(=O)=O`?
Answer: T/C (dose: 4.5 mg/kg/injection, schedule: Q01DX011 (ip), vehicle: carboxymethylcellulose (CMC)): 110 % of control; T/C (dose: 9.0 mg/kg/injection, schedule: Q01DX011 (ip), vehicle: carboxymethylcellulose (CMC)): 86 % of control; T/C (dose: 18.0 mg/kg/injection, schedule: Q01DX011 (ip), vehicle: carboxymethylcellulose (CMC)): 67 % of control; T/C [1]: 11 % of control; T/C [2]: 3 % of control

Question: Which results are given for `CC(=O)OCCOc1ccc(C(C)(C)C)cc1`?
Answer: T/C (dose: 57.0 mg/kg/injection, schedule: Q01DX011 (ip), vehicle: methylcellulose (MC)): 57 % of control; T/C (dose: 113.0 mg/kg/injection, schedule: Q01DX011 (ip), vehicle: carboxymethylcellulose (CMC)): 122 % of control; T/C (dose: 113.0 mg/kg/injection, schedule: Q01DX011 (ip), vehicle: methylcellulose (MC)): 83 % of control; T/C (dose: 225.0 mg/kg/injection, schedule: Q01DX011 (ip), vehicle: carboxymethylcellulose (CMC)): 171 % of control; T/C (dose: 225.0 mg/kg/injection, schedule: Q01DX011 (ip), vehicle: methylcellulose (MC)): 47 % of control; T/C (dose: 450.0 mg/kg/injection, schedule: Q01DX011 (ip), vehicle: carboxymethylcellulose (CMC)): 107 % of control; T/C (dose: 500.0 mg/kg/injection, schedule: Q01DX011 (ip), vehicle: carboxymethylcellulose (CMC)): 70 % of control; T/C (dose: 600.0 mg/kg/injection, schedule: Q01DX011 (ip), vehicle: carboxymethylcellulose (CMC)): 65 % of control

Question: Which results are given for `CCC(c1ccc(O)cc1)C(CC)c1ccc(OC)cc1` (stereo not drawn)?
Answer: T/C (dose: 5.0 mg/kg/injection, schedule: Q01DX011 (sc), vehicle: steriod suspending solution): 57 % of control; T/C (dose: 10.0 mg/kg/injection, schedule: Q01DX011 (sc), vehicle: steriod suspending solution): 56 % of control; T/C (dose: 20.0 mg/kg/injection, schedule: Q01DX011 (sc), vehicle: steriod suspending solution): 33 % of control; T/C (dose: 31.0 mg/kg/injection, schedule: Q01DX011 (ip), vehicle: olive oil, sesame oil, peanut oil): 33 % of control; T/C (dose: 62.5 mg/kg/injection, schedule: Q01DX011 (ip), vehicle: olive oil, sesame oil, peanut oil): 27 % of control; T/C (dose: 125.0 mg/kg/injection, schedule: Q01DX011 (ip), vehicle: olive oil, sesame oil, peanut oil): 45 % of control; T/C (dose: 250.0 mg/kg/injection, schedule: Q01DX011 (ip), vehicle: olive oil, sesame oil, peanut oil): 33 % of control

Question: With `Cc1cnc(SCc2ccc(Cl)cc2Cl)nc1N(C)C` as the compound, how does the T/C (dose: 62.0 mg/kg/injection, schedule: Q01DX011 (ip), vehicle: methylcellulose (MC)) read?
Answer: 55 % of control

Question: `CC[N+](C)(C)c1ncnc2nc[nH]c12` was tested. Which T/C (dose: 12.0 mg/kg/injection, schedule: Q01DX011 (ip), vehicle: carboxymethylcellulose (CMC)) did it give?
Answer: 88 % of control

Question: And the T/C (dose: 17.0 mg/kg/injection, schedule: Q01DX011 (ip), vehicle: carboxymethylcellulose (CMC))?
Answer: 80 % of control

Question: What about the T/C (dose: 25.0 mg/kg/injection, schedule: Q01DX011 (ip), vehicle: carboxymethylcellulose (CMC)) of the same compound?
Answer: 47 % of control and 52 % of control

Question: What about the T/C [2] of the same compound?
Answer: 33 % of control

Question: What about the T/C (dose: 50.0 mg/kg/injection, schedule: Q01DX011 (ip), vehicle: carboxymethylcellulose (CMC)) of the same compound?
Answer: 22 % of control

Question: And the T/C (dose: 75.0 mg/kg/injection, schedule: Q01DX011 (ip), vehicle: carboxymethylcellulose (CMC))?
Answer: 6 % of control

Question: And the T/C (dose: 100.0 mg/kg/injection, schedule: Q01DX011 (ip), vehicle: carboxymethylcellulose (CMC))?
Answer: 3 % of control

Question: Which results are given for `CC(C)Cn1cnc2c(SCc3ccccn3)nc(N)nc21`?
Answer: T/C (dose: 20.0 mg/kg/injection, schedule: Q01DX011 (ip), vehicle: methylcellulose (MC)): 5 % of control; T/C (dose: 65.0 mg/kg/injection, schedule: Q01DX011 (ip), vehicle: methylcellulose (MC)): 1 % of control
